Test results published in ChEMBL document CHEMBL1629448, “Identification and synthesis of novel inhibitors of acetyl-CoA carboxylase with in vitro and in vivo efficacy on fat oxidation” (J Med Chem, 2010).
Calls of active or inactive are those of the source. The rule behind the calls is not given here.

How the values were obtained:
Acetyl-CoA carboxylase 2 = Acetyl-CoA carboxylase 2 (Homo sapiens, UniProt O00763); assay: Inhibition of N-terminal His-tagged human recombinant ACC2 expressed in high five insect cells by ATP consumption assay
Acetyl-CoA carboxylase 1 [1] = target: Acetyl-CoA carboxylase 1 (Homo sapiens, UniProt Q13085); assay: Inhibition of N-terminal His-tagged human recombinant ACC1 expressed in high five insect cells by ATP consumption assay
[2] = (§1) Inhibition of N-terminal His-tagged rat recombinant ACC2 expressed in high five insect cells by ATP consumption assay
Acetyl-CoA carboxylase 1 [3] = target: Acetyl-CoA carboxylase 1 (Rattus norvegicus, UniProt P11497); assay: (§2) Inhibition of N-terminal His-tagged rat recombinant ACC1 expressed in high five insect cells by ATP consumption assay
Rattus norvegicus = species: Rattus norvegicus; assay: as §1
[4] = target: Acetyl-CoA carboxylase 1 (Rattus norvegicus) (UniProt P11497); assay: as §2

Sequence of Acetyl-CoA carboxylase 2 (O00763 whole entry): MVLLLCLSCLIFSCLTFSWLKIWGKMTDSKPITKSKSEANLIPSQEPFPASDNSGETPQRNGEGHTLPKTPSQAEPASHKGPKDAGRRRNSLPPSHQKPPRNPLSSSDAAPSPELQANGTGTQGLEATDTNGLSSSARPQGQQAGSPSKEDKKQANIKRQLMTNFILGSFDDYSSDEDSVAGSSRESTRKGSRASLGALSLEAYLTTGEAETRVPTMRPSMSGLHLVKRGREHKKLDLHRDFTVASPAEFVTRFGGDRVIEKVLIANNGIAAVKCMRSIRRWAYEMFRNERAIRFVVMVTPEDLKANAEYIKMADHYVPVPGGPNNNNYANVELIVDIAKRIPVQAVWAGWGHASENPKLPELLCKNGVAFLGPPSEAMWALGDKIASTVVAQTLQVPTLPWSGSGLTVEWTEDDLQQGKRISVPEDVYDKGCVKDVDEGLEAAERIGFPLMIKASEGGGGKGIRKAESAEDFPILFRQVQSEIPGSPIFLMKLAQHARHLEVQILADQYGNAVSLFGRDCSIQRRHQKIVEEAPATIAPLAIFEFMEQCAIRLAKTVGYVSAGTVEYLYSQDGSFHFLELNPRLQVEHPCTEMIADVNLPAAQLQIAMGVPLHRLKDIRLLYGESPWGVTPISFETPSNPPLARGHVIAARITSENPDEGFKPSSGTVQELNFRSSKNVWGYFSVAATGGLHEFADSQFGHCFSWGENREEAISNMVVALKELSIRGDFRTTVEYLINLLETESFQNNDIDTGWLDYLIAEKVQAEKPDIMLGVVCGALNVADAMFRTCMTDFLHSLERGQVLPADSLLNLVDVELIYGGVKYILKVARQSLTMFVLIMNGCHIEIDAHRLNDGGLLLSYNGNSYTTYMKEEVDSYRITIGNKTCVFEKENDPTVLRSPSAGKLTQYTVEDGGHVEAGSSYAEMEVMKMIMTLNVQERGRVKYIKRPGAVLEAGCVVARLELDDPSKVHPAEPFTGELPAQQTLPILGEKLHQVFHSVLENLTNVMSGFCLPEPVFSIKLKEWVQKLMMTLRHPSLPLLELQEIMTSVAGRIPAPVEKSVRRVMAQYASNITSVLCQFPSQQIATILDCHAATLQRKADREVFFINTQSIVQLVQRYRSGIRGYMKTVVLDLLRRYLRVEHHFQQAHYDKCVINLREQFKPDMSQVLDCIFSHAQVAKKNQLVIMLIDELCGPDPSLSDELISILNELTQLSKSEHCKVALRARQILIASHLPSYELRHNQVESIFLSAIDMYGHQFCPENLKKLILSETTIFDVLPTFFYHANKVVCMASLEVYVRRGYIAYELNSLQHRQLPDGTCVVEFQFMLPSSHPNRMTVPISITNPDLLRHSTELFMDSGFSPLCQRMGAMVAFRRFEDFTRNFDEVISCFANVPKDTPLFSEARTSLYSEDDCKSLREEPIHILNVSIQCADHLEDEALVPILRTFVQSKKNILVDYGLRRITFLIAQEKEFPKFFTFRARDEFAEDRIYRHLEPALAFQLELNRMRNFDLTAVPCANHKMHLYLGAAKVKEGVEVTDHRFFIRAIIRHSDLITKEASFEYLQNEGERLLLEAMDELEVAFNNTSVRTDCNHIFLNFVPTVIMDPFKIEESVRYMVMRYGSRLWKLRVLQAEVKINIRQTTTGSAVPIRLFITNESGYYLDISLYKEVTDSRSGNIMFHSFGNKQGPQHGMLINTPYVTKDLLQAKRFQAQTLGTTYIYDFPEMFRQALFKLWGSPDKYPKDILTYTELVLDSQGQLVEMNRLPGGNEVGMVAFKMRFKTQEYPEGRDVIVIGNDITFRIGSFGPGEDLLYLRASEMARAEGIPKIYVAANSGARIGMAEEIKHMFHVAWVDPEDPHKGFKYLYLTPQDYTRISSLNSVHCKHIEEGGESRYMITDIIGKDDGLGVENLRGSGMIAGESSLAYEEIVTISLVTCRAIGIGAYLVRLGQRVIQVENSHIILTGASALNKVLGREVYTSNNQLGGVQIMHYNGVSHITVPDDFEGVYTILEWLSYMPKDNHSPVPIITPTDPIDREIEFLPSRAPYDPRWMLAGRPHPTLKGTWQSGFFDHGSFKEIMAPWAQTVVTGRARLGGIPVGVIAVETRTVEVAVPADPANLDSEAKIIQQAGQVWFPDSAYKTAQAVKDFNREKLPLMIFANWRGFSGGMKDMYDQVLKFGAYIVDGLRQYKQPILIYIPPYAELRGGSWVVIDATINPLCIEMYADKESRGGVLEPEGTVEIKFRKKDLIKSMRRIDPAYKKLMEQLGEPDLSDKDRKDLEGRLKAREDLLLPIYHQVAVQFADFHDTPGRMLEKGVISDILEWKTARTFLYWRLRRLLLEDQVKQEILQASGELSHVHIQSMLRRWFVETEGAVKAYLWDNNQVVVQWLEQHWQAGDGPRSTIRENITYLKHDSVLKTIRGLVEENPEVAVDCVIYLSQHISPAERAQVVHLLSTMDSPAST

Row | IC50 (Acetyl-CoA carboxylase 2) [nM] | IC50 (Acetyl-CoA carboxylase 1 [1]) [nM] | IC50 (Acetyl-CoA carboxylase 1 [3]) [nM] | inhibition (Acetyl-CoA carboxylase 1 [1]) | inhibition [4] | SMILES | IC50 [2] [nM] | inhibition (Rattus norvegicus)
1 | 80 | 360 | 800 |  |  | CC(C)Oc1ccc(Oc2ccc(CC[C@H](C)NC(=O)C3CC3)cc2)cn1 | 700 | 
2 | 190 | 620 | 3200 |  |  | CC(CCc1ccc(Oc2ccc(OC(C)C)nc2)cc1)NC(=O)C1CC1 (centres undefined) | 1900 | 
3 |  | 1200 | 2900 |  |  | CC(CCc1ccc(Oc2ccc(OC(C)C)nc2)cc1)NC(N)=O (centres undefined) | 3000 | 
4 |  | 1800 | 2600 |  |  | CC(=O)N[C@@H](C)CCc1ccc(Oc2ccc(OC(C)C)cn2)cc1 | 6750 | 
5 | 250 | 1200 | 2900 |  |  | COC(=O)NC(C)CCc1ccc(Oc2ccc(OC(C)C)nc2)cc1 (centres undefined) | 3900 | 
6 | 7800 | 9900 | > 30000 |  |  | CC(=O)N[C@H](C)CCc1ccc(Oc2ccc(OC(C)C)nc2)cc1 | > 30000 | 
7 |  | 5700 | 11000 |  |  | CC(CCc1ccc(Oc2ccc(OC(C)C)nc2)cc1)NC=O (centres undefined) | 17000 | 
8 |  | 1780 | 2600 |  |  | CC(=O)NC(C)CCc1ccc(Oc2ccc(OC(C)C)cn2)cc1 (centres undefined) | 4520 | 
9 | 6700 | 12700 | > 30000 |  |  | CC(=O)NC(C)CCc1ccc(Oc2ccc(OC(C)C)nn2)cc1 (centres undefined) | > 30000 | 

More lines, now with the values behind:

Row | SMILES | IC50 (Acetyl-CoA carboxylase 2) [nM] | IC50 (Acetyl-CoA carboxylase 1 [1]) [nM] | IC50 (Acetyl-CoA carboxylase 1 [3]) [nM] | inhibition (Acetyl-CoA carboxylase 1 [1]) | inhibition [4] | IC50 [2] [nM] | inhibition (Rattus norvegicus)
10 | CC(=O)NC(C)CCc1ccc(OC2=NCC(OC(C)C)N=C2)cc1 (centres undefined) | 1200 | > 30000 | > 30000 |  |  | > 30000 | 
11 | CC(=O)NCCCC1OCC(Cc2cccc(OCCc3ccccc3)c2)CO1 (centres undefined) | 2100 | > 30000 | > 30000 |  |  | > 30000 | 
12 | CC(=O)NC(C)CCc1ccc(Oc2cnc(OC(C)C)nc2)cc1 (centres undefined) | 700 | 3000 | 7400 |  |  | 20000 | 
13 | CC(=O)NCCC[C@H]1OC[C@H](Oc2ccc(OCc3ccccc3)cc2)CO1 |  | > 30000 | > 30000 |  |  | > 30000 | 
14 | CC(=O)NCCCC1OCC(Cc2cccc(OCCC3CC3)c2)CO1 (centres undefined) | 2650 | > 30000 | > 30000 |  |  | > 30000 | 
15 | CC(=O)N[C@@H](C)CCc1ccc(Oc2ccc(OCc3ccccc3)cn2)cc1 |  | 920 | 1200 |  |  | > 30000 | 
16 | CC(=O)NCCCC1OCC(c2cccc3cc(OC4CCCC4)ccc23)CO1 (centres undefined) | 630 | > 30000 | > 30000 | inactive | inactive | > 30000 | inactive
17 | CC(=O)N[C@@H](C)CO[C@H]1CC[C@H](Oc2ccc(OC(C)C)nc2)CC1 | 60 | 2300 | 10500 |  |  | 600 | 
18 | CC(=O)NCCC[C@H]1OC[C@@H](Oc2ccc(OCc3ccccc3)cc2)CO1 | > 30000 |  |  |  |  |  | 
19 | CC(=O)NC(C)CCc1ccc(Oc2ccc(OCc3ccccc3)nc2)cc1 (centres undefined) | 80 | 1100 | 700 |  |  | 7900 | 
20 | CC(=O)NCCCC1OCC(Cc2cccc(OCCC3CCCC3)c2)CO1 (centres undefined) | 270 | 2700 | 25000 |  |  | 17000 | 
21 | CC(=O)N[C@@H](C)C#Cc1cnc(Oc2ccc(OC(C)C)cc2)s1 | 60 | > 10000 | > 10000 |  |  | 380 | 
22 | CC(=O)N[C@H](C)CCc1ccc(Oc2ccc(OCc3ccccc3)cn2)cc1 | > 30000 |  |  |  |  |  | 
23 | CC(=O)NCCCc1ccc(Oc2ccc(OC3CCCC3)cn2)cc1 | 1280 | > 30000 | > 30000 |  |  | > 30000 | 
24 | CC(=O)NCCC[C@H]1OC[C@H](Oc2ccc(OCc3ccccc3)cn2)CO1 | 70 | 14600 | 14000 |  |  | > 30000 | 
25 | CC(=O)NC(C)CCc1ccc(Oc2ccc(OC3CCCC3)cn2)cc1 (centres undefined) |  | 1100 | 2900 |  |  | 7900 | 
26 | O=C(c1c2ccccc2cc2ccccc12)N1CCC(N2CCC[C@@H](C(=O)N3CCOCC3)C2)CC1 | 70 | 910 |  |  |  | 280 | 
27 | CC(=O)NC(C)CCc1ccc(Oc2ccc(OCc3ccccc3)cn2)cc1 (centres undefined) | 210 | 750 | 2100 |  |  | > 30000 | 
28 | CC(=O)NCCC[C@H]1OC[C@H](Oc2ccc(OC3CCCC3)cc2)CO1 | 190 | 3900 | 13000 |  |  | 12000 | 
29 | CC(=O)N[C@@H](C)CC[C@H]1CC[C@H](Oc2ccc(OC(C)C)nc2)CC1 | 15 | 140 | 1140 |  |  | 200 | 
30 | CC(=O)NCCCC1OCC(Cc2cccc(OCC3CCC3)c2)CO1 (centres undefined) | 700 | 21000 | > 30000 |  |  | > 30000 | 
